The source of these data is US20240067660A1, “MACROCYCLIC SPIROCYCLE DERIVATIVES AS MCL-1 INHIBITORS” (Janssen Pharmaceutica NV, priority 2019, published 2024).

This experiment relates to MOLP8 cells. As to the kind of experiment: MOLP8 CellEvent Caspase-3/7 Green IncuCyte live-cell apoptosis assay. In kind it is cell-based, human. The protocol:
MCL-1 is a regulator of apoptosis and is highly over-expressed in tumor cells that escape cell death. The assay evaluates the cellular potency of small-molecule compounds targeting regulators of the apoptosis pathway, primarily MCL-1, Bfl-1, Bcl-2, and other proteins of the Bcl-2 family. Protein-protein inhibitors disrupting the interaction of anti-apoptotic regulators with BH3-domain proteins initiate apoptosis.
Activation of the apoptotic pathway was measured using the CellEvent™ Caspase-3/7 Green ReadyProbes™ Reagent (Thermo Fisher C10423, C10723). This assay produces a green fluorescent stain in cells that enter the apoptosis pathway. CellEvent® Caspase-3/7 Green reagent is a four amino acid peptide (DEVD) conjugated to a nucleic acid-binding dye that is non-fluorescent when not bound to DNA. The CellEvent® Caspase-3/7 Green reagent is intrinsically non-fluorescent, as the DEVD peptide inhibits binding of the dye to DNA. Upon activation of caspase-3/7 in apoptotic cells, the DEVD peptide is cleaved and the free dye can bind DNA, generating a bright green fluorescence. The activation of Caspase-3 and Caspase-7 is downstream of inhibition of MCL-1 or other apoptosis inhibiting proteins in cell lines that are dependent on them.
The live-cell readout on the IncuCyte permits tracking over time of the Caspase activation. […] The IncuCyte readout also allows one to normalize for cell number, as the suspension cells are hard to distribute evenly.
Signals were measured every 2 h for a duration of 22 h. The ratio of the Caspase mask to the Confluence mask, per image, as raw data, was calculated and the kinetic trace for every well was exported to Genedata Screener for analysis.
In Genedata Screener values for 6 h, 12 h, and 22 h from the kinetic traces were extracted. The values were normalized against negative controls (untreated cells). A standard dose-response analysis was performed on the normalized data.
The following data was reported at each of the following three aforementioned time points: (a) The dose-response curve, (b) The qAC50 and qAC50 Mode, and (c) Max Activity.
Cells were maintained in culture medium containing 10% Heat Inactivated (HI) FBS, 2 mM L-Glutamine and 50 μg/mL Gentamycin phenol red free RPMI-1640. Cells were split at 0.4 million/mL twice a week.
On Day 1, plates containing individual wells with test compounds at 10 mM concentration, 150 nL per well. The final concentrations range from […] compound (and no compound control) and compounds were thawed at room temperature for 1 hour. 25 μl of prewarmed medium was added into each well by multidrop (column 1, 3-22, 24), followed by addition of DMSO control (0.6% DMSO) in column 2. The plate was sealed using Breathe-Easy® sealing membrane and shaken for 30 min at room temperature to dissolve the test compound(s) in medium. The plate was then kept in the incubator for 1 hour at 37° C., 5% CO2.
MOLP8 cells in medium at […] (20000/50 μl final in assay) were prepared with CellEvent™ Caspase-3/7 Green Detection Reagent at 4 μM (2 μM final in assay). Once prepared, the cells were added to the test compound plate in an amount of 20000 and the plate was immediately placed in the IncuCyte and imaging started using following settings: 10× objective, 2 s exposure time in green channel, interval of 2 h, acquisition stopped after 22 h.
For analysis in IncuCyte, a Basic Analysis protocol was defined to calculate the “confluence” and “caspase” areas from the “Phase” and “green” images, respectively, as follows: (a) Confluence: Segmentation Adjustment 1, Hole Fill 0, Adjust Size −2, No filters (b) Caspase: Top-Hat segmentation, Radius 10, Threshold 0.3 GCU, Edge Split On with sensitivity 0, Hole Fill 0, Adjust Size 1, and filter on a minimum Area of 20 μm^2. The analyzer is trained on a sufficient number of positive and negative control wells, as well as compound treated wells, verifying that the “confluence” layer detects both live and dead (condensed) cells. […]

[1] abbreviates: Homo sapiens, MOLP-8, 6 h, 6 h, read-out: MOLP8 Caspase 3/7 AC50 at 6 h.
Setting [2] is: Homo sapiens, MOLP-8, 12 h, 12 h, read-out: MOLP8 Caspase 3/7 AC50 at 12 h.
Where [3] appears, read: Homo sapiens, MOLP-8, 22 h, 22 h, read-out: MOLP8 Caspase 3/7 AC50 at 22 h.

Like-named read-outs stand apart in the source and are kept apart here.

Regarding `COCC1/C=C/C[C@H](C)[C@@H](C)S(=O)(=O)NC(=O)c2ccc3c(c2)N(C[C@@H]2CCCN12)C[C@@]1(CCCc2cc(Cl)ccc21)CO3` (single isomer, unassigned) [Compound 8], the AC50 is 2390 nM under setting [1], 2490 nM under setting [2] and 2840 nM under setting [3].

As to `C[C@@H]1[C@@H](C)C/C=C/C(CO)N2CC[C@H]2CN2C[C@@]3(CCCc4cc(Cl)ccc43)COc3ccc(cc32)C(=O)NS1(=O)=O` (single isomer, unassigned) [Compound 10], the AC50 stood at 3070 nM under setting [1], 3240 nM under setting [2] and 3430 nM under setting [3].

Turning to `COC[C@H]1/C=C/C[C@@H](C)[C@@H](C)S(=O)(=O)NC(=O)c2ccc3c(c2)N(C[C@@H]2CCN21)C[C@@]1(CCCc2cc(Cl)ccc21)CO3` [Compound 4], the AC50 under setting [1] is approximately 1310 nM, the AC50 under setting [2] was 1200 nM and the AC50 under setting [3] was approximately 1380 nM.

Consider `COC[C@@H]1/C=C/C[C@@H](C)[C@@H](C)S(=O)(=O)NC(=O)c2ccc3c(c2)N(C[C@@H]2CCN21)C[C@@]1(CCCc2cc(Cl)ccc21)CO3` [Compound 7], for which the AC50 is, setting by setting: under setting [1], 2160 nM; under setting [2], 1720 nM; under setting [3], 1900 nM.

Turning to `C[C@@H]1[C@@H](C)C/C=C(\F)[C@H](CO)N2CC[C@H]2CN2C[C@@]3(CCCc4cc(Cl)ccc43)COc3ccc(cc32)C(=O)NS1(=O)=O` [Compound 9], the AC50 is, setting by setting: under setting [1], 400 nM; under setting [2], 400 nM; under setting [3], 400 nM.

In the case of `C[C@@H]1[C@@H](C)C/C=C(\F)[C@H](COc2ccccn2)N2CC[C@H]2CN2C[C@@]3(CCCc4cc(Cl)ccc43)COc3ccc(cc32)C(=O)NS1(=O)=O` [Compound 11], the AC50 reads like this: under setting [1], 2380 nM; under setting [2], 2320 nM; under setting [3], 2520 nM.

Take `C[C@@H]1[C@@H](C)C/C=C(\F)[C@H](COc2ccccn2)N2CC[C@@H]2CN2C[C@@]3(CCCc4cc(Cl)ccc43)COc3ccc(cc32)C(=O)NS1(=O)=O` [Compound 12]: the AC50 by setting is: (6 h, read-out: MOLP8 Caspase 3/7 AC50 at 6 h) 1220 nM; (12 h, read-out: MOLP8 Caspase 3/7 AC50 at 12 h) 1120 nM; (22 h, read-out: MOLP8 Caspase 3/7 AC50 at 22 h) 1330 nM.

Regarding `COC[C@H]1/C(F)=C/C[C@H](C)[C@@H](C)S(=O)(=O)NC(=O)c2ccc3c(c2)N(C[C@@H]2CCN21)C[C@@]1(CCCc2cc(Cl)ccc21)CO3` [Compound 13], the AC50 reads like this: under setting [1], 520 nM; under setting [2], 530 nM; under setting [3], 560 nM.

For `CC(C)COC[C@H]1/C(F)=C/C[C@H](C)[C@@H](C)S(=O)(=O)NC(=O)c2ccc3c(c2)N(C[C@@H]2CCN21)C[C@@]1(CCCc2cc(Cl)ccc21)CO3` [Compound 15], the AC50 under setting [1] was determined as 2430 nM, the AC50 under setting [2] amounted to 2400 nM and the AC50 under setting [3] amounted to 2420 nM.

For the compound `CCOC[C@H]1/C(F)=C/C[C@H](C)[C@@H](C)S(=O)(=O)NC(=O)c2ccc3c(c2)N(C[C@@H]2CCN21)C[C@@]1(CCCc2cc(Cl)ccc21)CO3` [Compound 16], the AC50 by setting is: under setting [1], 450 nM; under setting [2], 450 nM; under setting [3], 480 nM.

`C[C@@H]1[C@@H](C)C/C=C(\F)[C@H](COCC(=O)O)N2CC[C@H]2CN2C[C@@]3(CCCc4cc(Cl)ccc43)COc3ccc(cc32)C(=O)NS1(=O)=O` [Compound 17]: the AC50 turned out to be 11100 nM under setting [1], 10000 nM under setting [2] and 9610 nM under setting [3].

With `C[C@@H]1[C@@H](C)C/C=C(\F)[C@H](COCC(=O)N2CCOCC2)N2CC[C@H]2CN2C[C@@]3(CCCc4cc(Cl)ccc43)COc3ccc(cc32)C(=O)NS1(=O)=O` [Compound 18], the AC50 came to 660 nM under setting [1], 570 nM under setting [2] and 600 nM under setting [3].

Take `C[C@@H]1[C@@H](C)C/C=C(\F)[C@H](COCC(=O)N2CC(F)(F)C2)N2CC[C@H]2CN2C[C@@]3(CCCc4cc(Cl)ccc43)COc3ccc(cc32)C(=O)NS1(=O)=O` [Compound 19]: the AC50 by setting is: under setting [1], 390 nM; under setting [2], 400 nM; under setting [3], 430 nM.

With `COCCCOC[C@H]1/C(F)=C/C[C@H](C)[C@@H](C)S(=O)(=O)NC(=O)c2ccc3c(c2)N(C[C@@H]2CCN21)C[C@@]1(CCCc2cc(Cl)ccc21)CO3` [Compound 22], the AC50 under setting [1] was found to be 550 nM, the AC50 under setting [2] is 570 nM and the AC50 under setting [3] was determined as 620 nM.

With `C[C@@H]1[C@@H](C)C/C=C(\F)[C@H](COCCC2CCOCC2)N2CC[C@H]2CN2C[C@@]3(CCCc4cc(Cl)ccc43)COc3ccc(cc32)C(=O)NS1(=O)=O` [Compound 23], the AC50 turned out to be 1110 nM under setting [1], 1040 nM under setting [2] and 1150 nM under setting [3].

Take `Cc1nc(COC[C@H]2/C(F)=C/C[C@H](C)[C@@H](C)S(=O)(=O)NC(=O)c3ccc4c(c3)N(C[C@@H]3CCN32)C[C@@]2(CCCc3cc(Cl)ccc32)CO4)no1` [Compound 24]: the AC50 runs as follows: under setting [1], 390 nM; under setting [2], 410 nM; under setting [3], 400 nM.

With `C[C@@H]1[C@@H](C)C/C=C(\F)[C@H](COCCCN2CCOCC2)N2CC[C@H]2CN2C[C@@]3(CCCc4cc(Cl)ccc43)COc3ccc(cc32)C(=O)NS1(=O)=O` [Compound 25], the AC50 under setting [1] worked out at 360 nM, the AC50 under setting [2] was found to be 360 nM and the AC50 under setting [3] was 360 nM.

For the compound `C[C@@H]1[C@@H](C)C/C=C(\F)[C@H](COCC2CCC2)N2CC[C@H]2CN2C[C@@]3(CCCc4cc(Cl)ccc43)COc3ccc(cc32)C(=O)NS1(=O)=O` [Compound 26], the AC50 under setting [1] was found to be 3540 nM, the AC50 under setting [2] came out at 3570 nM and the AC50 under setting [3] stood at 3060 nM.

Consider `C[C@@H]1[C@@H](C)C/C=C(\F)[C@H](CF)N2CC[C@H]2CN2C[C@@]3(CCCc4cc(Cl)ccc43)COc3ccc(cc32)C(=O)NS1(=O)=O` [Compound 31], for which the AC50 by setting is: under setting [1], 1090 nM; under setting [2], 900 nM; under setting [3], 940 nM.
